Results: patent US11584747B2, “Substituted pyridopyrimidinonyl compounds useful as T cell activators” (BRISTOL-MYERS SQUIBB COMPANY, priority 2019, dated 2023)
Where two headings read alike, the source gives them in different places.

Tests used:
human DGKα [1] = target: T1, human DGKα (Homo sapiens (Human), UniProt P23743); assay: DGKα LIPGLO assay (extruded liposome substrate, ADP-Glo luminescence); assay type: biochemical
human DGKζ = human DGKζ (Homo sapiens (Human), UniProt Q13574); assay: DGKζ LIPGLO assay (extruded liposome substrate, ADP-Glo luminescence); assay type: biochemical
Chain of human DGKζ (Q13574 other isoform, or with tags, fused parts or gaps): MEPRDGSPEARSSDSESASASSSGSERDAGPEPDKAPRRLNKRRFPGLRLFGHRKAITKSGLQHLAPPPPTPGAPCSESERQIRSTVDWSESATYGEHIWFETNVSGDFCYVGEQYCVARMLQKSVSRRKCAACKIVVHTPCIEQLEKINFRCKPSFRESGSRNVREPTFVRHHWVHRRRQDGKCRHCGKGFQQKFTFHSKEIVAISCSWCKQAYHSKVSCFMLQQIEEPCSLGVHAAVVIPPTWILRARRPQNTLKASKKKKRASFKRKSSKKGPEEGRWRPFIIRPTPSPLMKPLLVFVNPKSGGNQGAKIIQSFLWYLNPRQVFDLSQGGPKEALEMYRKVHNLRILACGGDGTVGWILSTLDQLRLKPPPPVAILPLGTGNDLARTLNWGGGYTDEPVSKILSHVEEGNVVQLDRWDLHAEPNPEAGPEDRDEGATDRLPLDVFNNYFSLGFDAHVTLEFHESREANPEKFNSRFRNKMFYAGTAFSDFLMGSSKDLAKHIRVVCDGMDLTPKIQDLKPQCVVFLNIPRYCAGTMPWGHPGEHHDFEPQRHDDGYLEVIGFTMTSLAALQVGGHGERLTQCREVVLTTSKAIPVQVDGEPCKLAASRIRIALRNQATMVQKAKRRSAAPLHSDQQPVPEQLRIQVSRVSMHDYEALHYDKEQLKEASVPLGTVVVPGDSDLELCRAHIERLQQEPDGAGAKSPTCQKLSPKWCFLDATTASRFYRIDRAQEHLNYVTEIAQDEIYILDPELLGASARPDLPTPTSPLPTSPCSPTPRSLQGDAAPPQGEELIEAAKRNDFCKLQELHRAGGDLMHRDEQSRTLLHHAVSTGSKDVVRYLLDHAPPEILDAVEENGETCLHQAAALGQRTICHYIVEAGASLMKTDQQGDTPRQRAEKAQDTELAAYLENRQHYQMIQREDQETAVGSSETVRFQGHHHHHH

human DGKα [2] = target: T1, human DGKα; assay: DGKα ADPGLO assay (detergent/lipid micelle substrate); assay type: biochemical; settings: truncated DGK alpha; read-out: DGK alpha ADPGLO (Truncated) IC50
Protocol: DGK Alpha ADPGLO (Truncated) IC50 (uM)
The detergent/lipid micelle was prepared by combining 15 g phosphatidylserine (Avanti 840035P) and 1 g diacylglycerol (8008110) and dissolving into 150 mL chloroform in a 2 L round bottom flask. Chloroform was removed under high vacuum by rotary evaporation. […] The lipid/detergent solution was split into 5 mL aliquots and stored at −80° C.

[3] = test system: human venous whole blood (IFN-γ); assay: Human whole blood IFN-γ assay; assay type: cell-based
Protocol: Human venous whole blood (22.5 μL per well), obtained from healthy donors, was pre-treated with compounds for one hour at 37° C. in a humidified 95% air/5% CO2 incubator. The blood was stimulated with 2.5 μL anti-human CD3 and anti-CD28 mAb at a final concentration of 1 μg/mL each for 24 hours at 37° C. IFN-γ in the supernatants was measured using AlphLISA kit (Cat #AL217).

[4] = liposome assay, read-out: DGK alpha LIPGLO IC50
[5] = liposome assay, read-out: DGK zeta LIPGLO IC50
[6] = whole blood, normalized to 3 μM reference compound as 100% activation, read-out: IFN-γ Whole Blood Normalized EC50
[7] = Homo sapiens, whole blood, normalized to 3 μM reference compound as 100% activation, read-out: IFN-γ Whole Blood Normalized EC50

T1 sequence (P23743 whole entry, looked up): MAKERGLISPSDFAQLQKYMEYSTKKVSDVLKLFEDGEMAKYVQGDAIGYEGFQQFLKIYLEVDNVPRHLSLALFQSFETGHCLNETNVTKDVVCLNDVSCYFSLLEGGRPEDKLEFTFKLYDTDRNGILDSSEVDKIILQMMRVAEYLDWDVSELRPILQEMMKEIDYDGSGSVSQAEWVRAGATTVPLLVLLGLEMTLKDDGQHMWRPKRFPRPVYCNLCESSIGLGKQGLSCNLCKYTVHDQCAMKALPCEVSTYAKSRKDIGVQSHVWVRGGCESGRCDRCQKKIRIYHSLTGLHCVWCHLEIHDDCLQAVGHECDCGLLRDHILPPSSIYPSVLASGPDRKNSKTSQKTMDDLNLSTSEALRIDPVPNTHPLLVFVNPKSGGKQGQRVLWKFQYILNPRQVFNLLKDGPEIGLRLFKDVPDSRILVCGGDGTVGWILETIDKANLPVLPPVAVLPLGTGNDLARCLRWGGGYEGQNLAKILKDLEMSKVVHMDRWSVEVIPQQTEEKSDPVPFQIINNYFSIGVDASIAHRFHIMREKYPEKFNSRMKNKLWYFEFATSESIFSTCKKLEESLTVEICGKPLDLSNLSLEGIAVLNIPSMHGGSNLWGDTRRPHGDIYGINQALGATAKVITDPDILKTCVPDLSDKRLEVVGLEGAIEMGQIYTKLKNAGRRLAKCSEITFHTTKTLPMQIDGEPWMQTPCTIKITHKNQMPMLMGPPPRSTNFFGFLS

IC50 (human DGKα [1]; [4]) [nM]	IC50 (human DGKζ; [5]) [nM]	IC50 (human DGKα [2]) [nM]	IC50 (human DGKα [1]; liposome (LIPGLO) assay, read-out: DGK alpha (liposome assay) IC50) [nM]	IC50 (human DGKζ; liposome (LIPGLO) assay, read-out: DGK zeta (liposome assay) IC50) [nM]	EC50 ([3]; human whole blood, anti-CD3 plus anti-CD28 stimulation, 24 hours, read-out: IFN-γ Whole Blood EC50) [nM]	Structure (SMILES)	EC50 [3, 6] [nM]	EC50 [3, 7] [nM]
120	590	140	–	–	–	CCC(c1ccc(C(F)(F)F)cc1)N1C[C@H](C)N(c2nc(=O)n(C)c3ccc(C#N)nc23)C[C@H]1CC (single isomer, unassigned) [Example 90]	–	–
2940	2370	420	–	–	–	CCC(c1ccc(OC(F)(F)F)cc1F)N1C[C@H](C)N(c2nc(=O)n(C)c3ccc(C#N)nc23)C[C@H]1CC (single isomer, unassigned) [Example 86]	1540	–
230	110	2	–	–	–	CC[C@@H]1CN(c2nc(=O)n(C)c3ccc(C#N)nc23)[C@@H](C)CN1C(c1ccc(F)cc1)c1cccc(C(F)(F)F)n1 (single isomer, unassigned) [Example 66]	75	–
1610	330	–	–	–	–	C[C@@H]1CN(c2nc(=O)n(C)c3ccc(C#N)nc23)[C@@H](C)CN1C(c1ccc(F)cc1)c1csc(C(F)(F)F)n1 (single isomer, unassigned) [Example 170]	96	–
620	310	–	–	–	–	CC[C@H]1CN(C(c2ccc(F)cc2)c2ccon2)[C@H](CC)CN1c1nc(=O)n(C)c2ccc(C#N)nc12 (single isomer, unassigned) [Example 34]	420	–
500	31	–	–	–	–	CC[C@H]1CN(C(C)c2ccc(OCC3CC3)cc2F)[C@H](CC)CN1c1nc(=O)n(C)c2ccc(C#N)nc12 (single isomer, unassigned) [Example 32]	19	–
340	760	–	–	–	–	CC[C@@H]1CN(c2nc(=O)n(C)c3ccc(C#N)nc23)[C@@H](C)CN1C(C)c1ccc(C2CC2)cc1 (single isomer, unassigned) [Example 64]	690	–
310	510	–	–	–	–	CC[C@H]1CN(C(C)c2ccc(C(F)(F)F)nc2)[C@H](CC)CN1c1nc(=O)n(C)c2ccc(C#N)nc12 (single isomer, unassigned) [Example 45]	1040	–
2100	1210	–	–	–	–	CC(c1ccc(OC(F)(F)F)c(F)c1)N1C[C@H](C)N(c2nc(=O)n(C)c3ccc(C#N)nc23)C[C@H]1C (single isomer, unassigned) [Example 161]	4010	–
110	76	–	–	–	–	CC[C@@H]1CN(c2nc(=O)n(C)c3ccc(C#N)nc23)[C@@H](C)CN1C(c1ccc(F)cc1)c1ccccn1 (single isomer, unassigned) [Example 88]	48	–
960	930	–	–	–	–	CC[C@@H]1CN(c2nc(=O)n(C)c3ccc(C#N)nc23)[C@@H](C)CN1C(C)c1ccc(OC)cc1 (single isomer, unassigned) [Example 57]	1900	–
840	1410	–	–	–	–	CC[C@@H]1CN(c2nc(=O)n(C)c3ccc(C#N)nc23)[C@@H](C)CN1C(C)c1ccc(OCC2CC2)cc1F (single isomer, unassigned) [Example 70]	1440	–
79	23	–	–	–	–	CC[C@@H]1CN(c2nc(=O)n(C)c3ccc(C#N)nc23)[C@@H](C)CN1C(c1ccc(F)cc1)c1ccc(C2CC2)cn1 (single isomer, unassigned) [Example 76]	180	–
2660	45000	–	–	–	–	CC(c1ccc(OC(F)(F)F)cc1)N1C[C@H](C)N(c2nc(=O)n(C)c3ccc(C#N)nc23)C[C@H]1CO (single isomer, unassigned) [Example 184]	20000	–
1190	100	–	–	–	–	CC[C@@H]1CN(c2nc(=O)n(C)c3ccc(C#N)nc23)[C@@H](C)CN1C(c1ccc(F)cc1)c1cccc(C(F)(F)F)n1 (single isomer, unassigned) [Example 65]	360	–
690	1980	–	–	–	–	CCC(c1ccc(OC(F)(F)F)cc1F)N1C[C@H](C)N(c2nc(=O)n(C)c3ccc(C#N)nc23)C[C@H]1C (single isomer, unassigned) [Example 153]	2310	–
190	110	–	–	–	–	CC(c1ccc(C2CC2)cc1)N1C[C@H](C)N(c2nc(=O)n(C)c3ccc(C#N)nc23)C[C@H]1C (single isomer, unassigned) [Example 3]	31	–
52	380	–	–	–	–	CC[C@@H]1CN(c2nc(=O)n(C)c3ccc(C#N)nc23)[C@@H](C)CN1C(C)c1ccc(C#N)cc1 (single isomer, unassigned) [Example 61]	4500	–
58	220	–	–	–	–	CC[C@@H]1CN(c2nc(=O)n(C)c3ccc(C#N)nc23)[C@@H](C)CN1Cc1ccc(OC(F)(F)F)cc1F [Example 62, 4-((2S,5R)-5-ethyl-4-(2-fluoro-4-(trifluoromethoxy)benzyl)-2-methylpiperazin-1-yl)-1-methyl-2-oxo-1,2-dihydropyrido[3,2-d]pyrimidine-6-carbonitrile]	–	200
386	1010	–	–	–	–	CC[C@H]1CN(C(C)c2ccc(C(F)(F)F)cc2)[C@H](CC)CN1c1nc(=O)n(C)c2ccc(C#N)nc12 (single isomer, unassigned) [Example 21]	2850	–
29	17	–	–	–	–	[2H]C([2H])([2H])Oc1ccc(C(C)N2C[C@H](CC)N(c3nc(=O)n(C)c4ccc(C#N)nc34)C[C@H]2CC)cc1 (single isomer, unassigned) [Example 190]	9	–
660	570	–	–	–	–	C[C@@H]1CN(c2nc(=O)n(C)c3ccc(C#N)nc23)[C@@H](C)CN1C(c1ccc(F)cc1)c1nc(C2CC2)cs1 (single isomer, unassigned) [Example 158]	1580	–
300	260	–	–	–	–	CC[C@@H]1CN(c2nc(=O)n(C)c3ccc(C#N)nc23)[C@@H](C)CN1C(C)c1ccc(C(F)(F)F)cc1F (single isomer, unassigned) [Example 59]	500	–
–	–	–	1390	6050	2160	C[C@@H]1CN(c2nc(=O)n(C)c3ccc(C#N)nc23)[C@@H](C)CN1C(c1ccc(F)cc1)c1ccc(C#N)cc1 (stereo partly drawn) [Example 375, 4-((2S,5R)-4-((4-cyanophenyl)(4-fluorophenyl)methyl)-2,5-dimethylpiperazin-1-yl)-1-methyl-2-oxo-1,2-dihydropyrido[3,2-d]pyrimidine-6-carbonitrile]	–	–
820	1550	–	–	–	–	CC(c1ccc(F)cc1)N1C[C@H](C)N(c2nc(=O)n(C)c3ccc(C#N)nc23)C[C@H]1C (single isomer, unassigned) [Example 129]	–	13200
16	370	–	–	–	–	CCC(c1ccc(OC(F)(F)F)cc1)N1C[C@H](C)N(c2nc(=O)n(C)c3ccc(C#N)nc23)C[C@H]1C (single isomer, unassigned) [Example 154]	–	1430
4260	780	–	–	–	–	C[C@@H]1CN(c2nc(=O)n(C)c3ccc(C#N)nc23)[C@@H](C)CN1Cc1cc(F)c(F)cc1Cl [Example 134, 4-((2S,5R)-4-(2-chloro-4,5-difluorobenzyl)-2,5-dimethylpiperazin-1-yl)-1-methyl-2-oxo-1,2-dihydropyrido[3,2-d]pyrimidine-6-carbonitrile]	–	3670
